Results reported in PMC8112388 (Inorganic chemistry, 2021).

Biological target: human serum albumin (HSA) (Homo sapiens, UniProt P02768)
Test: proton relaxation enhancement titration
Format: binding
Settings: read-out: KD(HSA)

Sequence of human serum albumin (HSA) (P02768 25-609): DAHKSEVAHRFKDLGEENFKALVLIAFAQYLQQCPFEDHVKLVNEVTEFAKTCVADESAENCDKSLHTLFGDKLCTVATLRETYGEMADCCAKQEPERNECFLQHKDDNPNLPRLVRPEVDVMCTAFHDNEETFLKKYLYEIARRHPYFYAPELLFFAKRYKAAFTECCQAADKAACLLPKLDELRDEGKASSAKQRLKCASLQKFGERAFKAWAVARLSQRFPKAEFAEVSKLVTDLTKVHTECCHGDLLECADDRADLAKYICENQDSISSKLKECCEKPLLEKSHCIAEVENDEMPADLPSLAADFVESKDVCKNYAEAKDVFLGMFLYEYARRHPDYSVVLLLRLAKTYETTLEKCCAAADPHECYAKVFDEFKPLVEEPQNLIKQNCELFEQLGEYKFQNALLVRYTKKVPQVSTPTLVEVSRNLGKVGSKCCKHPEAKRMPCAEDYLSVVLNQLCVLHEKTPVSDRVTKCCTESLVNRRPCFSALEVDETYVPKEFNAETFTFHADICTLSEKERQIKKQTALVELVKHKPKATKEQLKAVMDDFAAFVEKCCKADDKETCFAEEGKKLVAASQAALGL

- Kd: 28 ± 1 µM
Substance: MnPyC3A–BPEN [Mn(3)]
